Results on 70 compounds are retold here after ChEMBL document CHEMBL4421722, “Inhibitors of protein prenyltransferases” (2013).

The species entered for the test is Rattus norvegicus. In words: Inhibition of rat recombinant geranylgeranyltransferase type I expressed in Escherichia coli assessed as residual enzyme activity for geranylgeranylation of K-Ras4B at 50 uM incubated for 30 mins in presence of [3H]GGPP by scintillation counting assay relative to control.
Consider `CCOc1ccc([C@@H]2C[C@@H](SC3CCCC3)[C@H](C(=O)O)CN2S(=O)(=O)c2ccc(C)cc2)cc1`, for which the Activity turned out to be 84.6%. Regarding `COc1cccc([C@@H]2C[C@@H](SCCC(C)C)[C@H](C(=O)O)CN2S(=O)(=O)c2ccc(C)cc2)c1`, the Activity worked out at 62%. With `Cc1ccccc1S(=O)(=O)N1[C@@H](c2ccc(C(C)(C)C)cc2)C(C(=O)O)=CC[C@H]1c1ccc(Cl)cc1`, the Activity is 97.3%. For the compound `Cc1ccc(S(=O)(=O)N2[C@@H](c3ccc(Cl)cc3)C(C(=O)O)=CC[C@H]2c2cccc(Cl)c2)cc1`, the Activity worked out at 60.4%. Take `C=CCS[C@@H]1C[C@@H](c2cccc(OC)c2)N(S(=O)(=O)c2ccc(C)cc2)C[C@H]1C(=O)O`: the Activity is 75.1%. Take `C=CCS[C@@H]1C[C@@H](c2ccc3c(c2)OCO3)N(S(=O)(=O)c2ccc(C)cc2)C[C@H]1C(=O)O`: the Activity was 76.4%. For `CCS[C@@H]1C[C@@H](c2cc(OC)c(OC)c(OC)c2)N(S(=O)(=O)c2ccc(C)cc2)C[C@H]1C(=O)O`, the Activity stood at 90.4%. In the case of `Cc1ccc([C@@H]2CC=C(C(=O)O)[C@H](c3ccc(C(C)(C)C)cc3)N2S(=O)(=O)c2ccc(Cl)cc2)cc1`, the Activity stood at 74.4%.

For `Cc1ccc([C@@H]2CC=C(C(=O)O)[C@H](c3ccc(C(C)(C)C)cc3)N2S(=O)(=O)c2ccc(C)cc2)cc1`, the Activity was 85.5%.

Consider `COc1cccc([C@@H]2C[C@@H](SCc3ccccc3)[C@H](C(=O)O)CN2S(=O)(=O)c2ccc(C)cc2)c1`, for which the Activity was determined as 35%.

Consider `Cc1ccc([C@@H]2C[C@@H](SCC(C)C)[C@H](C(=O)O)CN2S(=O)(=O)c2ccccc2C)cc1`, for which the Activity turned out to be 78.3%. In the case of `Cc1ccc([C@@H]2C[C@@H](SCc3ccc(C(C)(C)C)cc3)[C@H](C(=O)O)CN2S(=O)(=O)c2ccc(C)cc2)cc1`, the Activity stood at 69.6%.

Regarding `Cc1ccc([C@@H]2CC=C(C(=O)O)[C@H](c3cccc(Cl)c3)N2S(=O)(=O)c2ccccc2C)cc1`, the Activity worked out at 62.3%. For `Cc1ccc([C@@H]2CC=C(C(=O)O)[C@H](c3cccc(Cl)c3)N2S(=O)(=O)c2ccc(C)cc2)cc1`, the Activity turned out to be 69.4%.

For `Cc1ccc([C@H]2C(C(=O)O)=CC[C@@H](c3ccccc3)N2S(C)(=O)=O)cc1`, the Activity was found to be 90.4%. As for `COc1ccc([C@@H]2CC=C(C(=O)O)[C@H](c3cccc(Cl)c3)N2S(=O)(=O)c2ccccc2C)cc1`, the figure is 66.1%. As for `COc1ccc([C@@H]2C[C@@H](Sc3ccccc3)[C@H](C(=O)O)CN2S(=O)(=O)c2ccccc2)cc1`, the figure is 103%. Take `COc1ccc([C@@H]2C[C@@H](SCC(C)C)[C@H](C(=O)O)CN2S(=O)(=O)c2ccc(C)cc2)cc1`: the Activity was determined as 79.3%. Regarding `CCCCCCS[C@@H]1C[C@@H](c2ccc3c(c2)OCO3)N(S(=O)(=O)c2ccc(C)cc2)C[C@H]1C(=O)O`, the Activity was determined as 62.7%. As for `CCCCCCS[C@@H]1C[C@@H](c2ccc(C)cc2)N(S(=O)(=O)c2ccc(C)cc2)C[C@H]1C(=O)O`, the figure is 70.9%; as for `CC(C)(C)c1ccc([C@H]2C(C(=O)O)=CC[C@@H](c3ccc(Cl)cc3)N2S(=O)(=O)c2ccc(Cl)cc2)cc1`, 110%.

In the case of `Cc1ccc([C@@H]2CC=C(C(=O)O)[C@H](c3cccc(Br)c3)N2S(C)(=O)=O)cc1`, the Activity is 66.6%.

In the case of `CCOc1ccc([C@@H]2CC=C(C(=O)O)[C@H](c3ccc(Br)cc3)N2S(=O)(=O)c2ccc(C)cc2)cc1`, the Activity worked out at 79.4%. In the case of `CC(=O)C1=CC[C@@H](c2ccc(C)cc2)N(S(=O)(=O)c2ccc(Cl)cc2)C1`, the Activity was 112%. In the case of `COc1ccc([C@@H]2CC=C(C(=O)O)[C@H](c3ccc(Br)cc3)N2S(=O)(=O)c2ccc(C)cc2)cc1`, the Activity is 72.1%. Regarding `CS(=O)(=O)N1[C@@H](c2ccc(Br)cc2)C(C(=O)O)=CC[C@H]1c1ccc(Cl)cc1`, the Activity amounted to 53.6%.

As to `COc1ccc([C@@H]2C[C@@H](SC3CCCC3)[C@H](C(=O)O)CN2S(=O)(=O)c2ccccc2)cc1`, the Activity was found to be 94.5%. Consider `CC(=O)C1=CC[C@@H](c2ccccc2F)N(S(=O)(=O)c2ccc(C)cc2)C1`, for which the Activity amounted to 80.8%. Turning to `COc1ccc([C@@H]2C[C@@H](SCCc3ccccc3)[C@H](C(=O)O)CN2S(=O)(=O)c2ccc(Cl)cc2)cc1`, the Activity turned out to be 75.3%. Turning to `CC(=O)C1=CC[C@@H](c2cccc(C)c2)N(S(=O)(=O)c2ccc(C)cc2)C1`, the Activity is 102%.

In the case of `C=CCS[C@@H]1C[C@@H](c2cc(OC)c(OC)c(OC)c2)N(S(=O)(=O)c2ccc(C)cc2)C[C@H]1C(=O)O`, the Activity is 109%. Consider `CCCCCCS[C@@H]1C[C@@H](c2ccc(Cl)cc2)N(S(=O)(=O)c2ccccc2C)C[C@H]1C(=O)O`, for which the Activity came to 66.3%. As for `COc1ccc([C@@H]2CC=C(C(=O)O)[C@H](c3cccc(C)c3)N2S(=O)(=O)c2ccccc2)cc1`, the figure is 72.6%; as for `Cc1ccc([C@@H]2CC=C(C(=O)O)[C@H](c3cccc(F)c3)N2S(=O)(=O)c2ccccc2C)cc1`, 63.4%; as for `COc1cccc([C@@H]2CC=C(C(=O)O)[C@H](c3ccc(F)cc3)N2S(=O)(=O)c2ccc(C)cc2)c1`, 65%. As for `CCS[C@@H]1C[C@@H](c2ccccc2F)N(S(=O)(=O)c2ccc(C)cc2)C[C@H]1C(=O)O`, the Activity was found to be 89.4%. To `COc1ccc([C@@H]2CC=C(C(=O)O)[C@H](c3cccc(Br)c3)N2S(=O)(=O)c2ccc(Cl)cc2)cc1` belongs 60.7%; to `CCCCCS[C@@H]1C[C@@H](c2ccc(OC)cc2)N(S(=O)(=O)c2ccccc2)C[C@H]1C(=O)O`, 94.8%; to `Cc1ccc([C@@H]2C[C@@H](SC3CCCC3)[C@H](C(=O)O)CN2S(=O)(=O)c2ccccc2C)cc1`, 93.5%.

Regarding `CCCCCS[C@@H]1C[C@@H](c2ccc(C)cc2)N(S(=O)(=O)c2ccc(Cl)cc2)C[C@H]1C(=O)O`, the Activity was 75.8%. `CCCCS[C@@H]1C[C@@H](c2ccccc2F)N(S(=O)(=O)c2ccc(C)cc2)C[C@H]1C(=O)O`: the Activity is 86.3%. In the case of `COc1cc([C@@H]2C[C@@H](SCCc3ccccc3)[C@H](C(=O)O)CN2S(=O)(=O)c2ccc(C)cc2)cc(OC)c1OC`, the Activity turned out to be 43.5%. In the case of `CCCCS[C@@H]1C[C@@H](c2cccc(OC)c2)N(S(=O)(=O)c2ccc(C)cc2)C[C@H]1C(=O)O`, the Activity stood at 83.9%.

With `Cc1ccc([C@@H]2C[C@@H](SCCC(C)C)[C@H](C(=O)O)CN2S(C)(=O)=O)cc1`, the Activity is 93.4%. Turning to `CCc1ccc([C@@H]2CC=C(C(=O)O)[C@H](c3ccc(F)cc3)N2S(=O)(=O)c2ccc(C)cc2)cc1`, the Activity is 55.2%. For `Cc1ccc(S(=O)(=O)N2[C@@H](c3cccc(C)c3)C(C(=O)O)=CC[C@H]2c2ccccc2F)cc1`, the Activity came to 62.8%. Regarding `Cc1ccc(S(=O)(=O)N2[C@@H](c3cccc(F)c3)C(C(=O)O)=CC[C@H]2c2ccc(Cl)cc2)cc1`, the Activity was 76.2%. With `CCCCS[C@@H]1C[C@@H](c2ccc(C)cc2)N(S(=O)(=O)c2ccc(C)cc2)C[C@H]1C(=O)O`, the Activity was 82.6%. In the case of `CCCCCCS[C@@H]1C[C@@H](c2ccccc2)N(S(=O)(=O)c2ccc(C)cc2)C[C@H]1C(=O)O`, the Activity amounted to 77.5%. `Cc1ccccc1S(=O)(=O)N1C[C@@H](C(=O)O)[C@H](SCCC(C)C)C[C@H]1c1ccc(Cl)cc1`: the Activity amounted to 53.2%.

Regarding `Cc1ccc(S[C@@H]2C[C@@H](c3ccc(Cl)cc3)N(S(=O)(=O)c3ccccc3C)C[C@H]2C(=O)O)cc1`, the Activity amounted to 74.8%. Consider `Cc1ccc(S(=O)(=O)N2[C@@H](c3cccc(Cl)c3)C(C(=O)O)=CC[C@H]2c2ccc(Cl)cc2)cc1`, for which the Activity stood at 59.2%. `Cc1ccc([C@@H]2CC=C(C(=O)O)[C@H](c3ccc(Br)cc3)N2S(=O)(=O)c2ccc(C)cc2)cc1`: the Activity was found to be 68.1%.

Consider `COC(=O)c1ccccc1S(=O)(=O)N1[C@@H](c2ccc(C)cc2)C(C(=O)O)=CC[C@H]1c1ccc(C)cc1`, for which the Activity is 89.4%. Take `CCOc1ccc([C@@H]2C[C@@H](Sc3ccccc3)[C@H](C(=O)O)CN2S(=O)(=O)c2ccc(C)cc2)cc1`: the Activity was 61.1%. As to `COc1ccc([C@@H]2CC=C(C(=O)O)[C@H](c3ccc(C(C)(C)C)cc3)N2S(=O)(=O)c2ccccc2C)cc1`, the Activity was 70.7%. As for `CCCS[C@@H]1C[C@@H](c2ccc(CC)cc2)N(S(=O)(=O)c2ccc(C)cc2)C[C@H]1C(=O)O`, the Activity turned out to be 69%. As for `COc1ccc(S[C@@H]2C[C@@H](c3ccc(C)cc3)N(S(=O)(=O)c3ccccc3)C[C@H]2C(=O)O)cc1`, the Activity stood at 100%.

For the compound `Cc1ccc([C@@H]2CC=C(C(=O)O)[C@H](c3ccc(F)cc3)N2S(C)(=O)=O)cc1`, the Activity worked out at 84.4%. To `Cc1ccc([C@H]2C(C(=O)O)=CC[C@@H](c3cccs3)N2S(=O)(=O)c2ccc(C)cc2)cc1` belongs 73.4%; to `COc1ccc([C@@H]2CC=C(C(=O)O)[C@H](c3ccc(Cl)cc3)N2S(=O)(=O)c2ccc(C)cc2)cc1`, 91.4%; to `COc1cccc([C@@H]2CC=C(C(=O)O)[C@H](c3cccc(C)c3)N2S(=O)(=O)c2ccc(C)cc2)c1`, 98.6%. As for `COc1ccc([C@@H]2C[C@@H](SC3CCCC3)[C@H](C(=O)O)CN2S(=O)(=O)c2ccc(Cl)cc2)cc1`, the figure is 83.1%; as for `CC(=O)C1=CC[C@@H](c2cccc(Br)c2)N(S(=O)(=O)c2ccc(C)cc2)C1`, 105%. Regarding `CCc1ccc([C@@H]2C[C@@H](SC3CCCC3)[C@H](C(=O)O)CN2S(=O)(=O)c2ccc(C)cc2)cc1`, the Activity amounted to 87%. Consider `Cc1ccc(S[C@@H]2C[C@@H](c3cccc(Br)c3)N(S(=O)(=O)c3ccc(C)cc3)C[C@H]2C(=O)O)cc1`, for which the Activity worked out at 94%. On to `CCOc1ccc([C@@H]2C[C@@H](Sc3ccc(C)cc3)[C@H](C(=O)O)CN2S(=O)(=O)c2ccc(C)cc2)cc1`, for which the Activity worked out at 65.4%. On to `CCCCCCS[C@@H]1C[C@@H](c2ccc(CC)cc2)N(S(=O)(=O)c2ccc(C)cc2)C[C@H]1C(=O)O`, for which the Activity worked out at 70%. To `CCCCCS[C@@H]1C[C@@H](c2ccc(OCC)cc2)N(S(=O)(=O)c2ccc(C)cc2)C[C@H]1C(=O)O` belongs 89.1%; to `COc1ccc([C@@H]2CC=C(C(=O)O)[C@H](c3cccc(F)c3)N2S(=O)(=O)c2ccc(C)cc2)cc1`, 87.5%.
